Measurements: US8648092B2, “Imidazo[1,2-a]pyridine derivatives: preparation and pharmaceutical applications” (MEI Pharma, priority 2005, dated 2014)

Tests used:
[1] = biological target: HDAC1 enzyme (recombinant GST-HDAC1) (Homo sapiens (Human), UniProt Q13547); experiment: In vitro HDAC assay for determination of IC50 values (BIOMOL fluorescent-based HDAC activity assay); assay type: biochemical; conditions: Flur de lys substrate, 2 h room temperature, read-out: IC50 (HDAC 1)
Method in brief: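 Recombinant human GST-HDAC1, baculovirus-expressed in SF9 cells and glutathione-purified, tested with a fluorogenic deacetylase substrate; Fluor de Lys developer added for 10 min. Fluorescence at 360 nm excitation/460 nm emission; IC50 fitted from a concentration series.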

[2] = test system: Colo205 cells; experiment: Cell-based proliferation assay for determination of GI50 values (CyQUANT); set-up: species or system human
Method in brief: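 Colo205 cells in RPMI 1640 with 5% FBS, seeded 5000/well and grown 24 h at 37 °C. Exposure to compound lasted 96 h, with growth read by CyQUANT. GI50 = concentration giving 50% growth inhibition, from dose-response curves.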

[3] = Homo sapiens, COLO 205, 96 h treatment
[4] = Homo sapiens, COLO 205, 96 h, 96 h treatment

HDAC1 enzyme (recombinant GST-HDAC1), sequence (Q13547 whole entry): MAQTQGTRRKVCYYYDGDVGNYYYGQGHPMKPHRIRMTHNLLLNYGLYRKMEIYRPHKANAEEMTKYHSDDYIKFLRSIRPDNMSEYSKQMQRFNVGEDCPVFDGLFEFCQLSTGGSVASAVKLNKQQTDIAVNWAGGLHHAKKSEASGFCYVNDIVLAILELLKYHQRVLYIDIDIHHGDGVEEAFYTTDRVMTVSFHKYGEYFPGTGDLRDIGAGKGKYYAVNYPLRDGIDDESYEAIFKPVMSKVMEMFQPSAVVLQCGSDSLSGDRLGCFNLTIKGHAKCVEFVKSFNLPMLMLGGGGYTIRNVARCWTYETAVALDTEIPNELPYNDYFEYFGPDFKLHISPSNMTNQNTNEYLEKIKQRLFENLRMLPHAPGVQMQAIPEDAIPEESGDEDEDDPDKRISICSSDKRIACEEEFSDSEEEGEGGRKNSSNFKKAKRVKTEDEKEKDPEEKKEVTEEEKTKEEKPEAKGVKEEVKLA

| IC50 [1] [nM] | GI50 [2, 3] [nM] | GI50 [2, 4] [nM] | Structure (SMILES) | GI50 ([2]; 96 h treatment) [nM] |
| --- | --- | --- | --- | --- |
| 130 | 750 | – | CCCCCN(CC)Cc1c(C(C)(C)C)nc2cc(/C=C/C(=O)NO)ccn12 [Compound 87, 3-{2-tert-Butyl-3-[(ethyl-pentyl-amino)-methyl]-imidazo[1,2-a]pyridin-7-yl}-N-hydroxy-acrylamide] | – |
| 60 | – | 350 | CCN(CCC(C)C)Cc1c(C(C)(C)C)nc2cc(/C=C/C(=O)NO)ccn12 [Compound 89, 3-(2-tert-Butyl-3-{[ethyl-(3-methyl-butyl)-amino]-methyl}-imidazo[1,2-a]pyridin-7-yl)-N-hydroxy-acrylamide] | – |
| 240 | 2000 | – | CCCCCCN(CC)Cc1c(C(C)(C)C)nc2cc(/C=C/C(=O)NO)ccn12 [Compound 90, 3-{2-tert-Butyl-3-[(ethyl-hexyl-amino)-methyl]-imidazo[1,2-a]pyridin-7-yl}-N-hydroxy-acrylamide] | – |
| 470 | 2100 | – | CCCC(C)CN(CC)Cc1c(C(C)(C)C)nc2cc(/C=C/C(=O)NO)ccn12 (stereo not shown) [Compound 91, 3-(2-tert-Butyl-3-{[ethyl-(2-methyl-pentyl)-amino]-methyl}-imidazo[1,2-a]pyridin-7-yl)-N-hydroxy-acrylamide] | – |
| 70 | – | 480 | CCN(CCC(C)(C)C)Cc1c(C(C)(C)C)nc2cc(/C=C/C(=O)NO)ccn12 [Compound 92, 3-(2-tert-Butyl-3-{[(3,3-dimethyl-butyl)-ethyl-amino]-methyl}-imidazo[1,2a]pyridin-7-yl)-N-hydroxy-acrylamide] | – |
| 190 | 970 | – | CCC(CC)CN(CC)Cc1c(C(C)(C)C)nc2cc(/C=C/C(=O)NO)ccn12 [Compound 93, 3-(2-tert-Butyl-3-{[ethyl-(2-ethyl-butyl)-amino]-methyl}-imidazo[1,2-a]pyridin-7-yl)-N-hydroxy-acrylamide] | – |
| 90 | 600 | – | CCN(CCCSC)Cc1c(C(C)(C)C)nc2cc(/C=C/C(=O)NO)ccn12 [Compound 95, 3-(2-tert-Butyl-3-{[ethyl-(3-methylsulfanyl-propyl)-amino]-methyl}-imidazo[1,2-a]pyridin-7-yl)-N-hydroxy-acrylamide] | – |
| 370 | 3400 | – | CCN(Cc1c(C(C)(C)C)nc2cc(/C=C/C(=O)NO)ccn12)CC1CCOC1 (stereo not shown) [Compound 96, 3-(2-tert-Butyl-3-{[ethyl-(tetrahydro-furan-3-ylmethyl)-amino]-methyl}-imidazo[1,2-a]pyridin-7-yl)-N-hydroxy-acrylamide] | – |
| 330 | 2100 | – | CCN(Cc1c(C(C)(C)C)nc2cc(/C=C/C(=O)NO)ccn12)CC1CC1 [Compound 97, 3-{2-tert-Butyl-3-[(cyclopropylmethyl-ethyl-amino)-methyl]-imidazo[1,2-a]pyridin-7-yl}-N-hydroxy-acrylamide] | – |
| 190 | – | 1100 | CCN(Cc1c(C(C)(C)C)nc2cc(/C=C/C(=O)NO)ccn12)CC1CCCCC1 [Compound 98, 3-{2-tert-Butyl-3-[(cyclohexylmethyl-ethyl-amino)-methyl]-imidazo[1,2-a]pyridin-7-yl}-N-hydroxy-acrylamide] | – |
| 30 | 180 | – | CCCCN(CC)Cc1c(C)nc2cc(/C=C/C(=O)NO)ccn12 [Compound 99, 3-{3-[(Butyl-ethyl-amino)-methyl]-2-methyl-imidazo[1,2-a]pyridin-7-yl}-N-hydroxy-acrylamide] | – |
| 540 | – | 4600 | CCCN(CC)Cc1c(C)nc2cc(/C=C/C(=O)NO)ccn12 [Compound 100, 3-{3-[(Ethyl-propyl-amino)-methyl]-2-methyl-imidazo[1,2-a]pyridin-7-yl}-N-hydroxy-acrylamide] | – |
| 10 | 50 | – | CCC(CC)CN(CC)Cc1c(C)nc2cc(/C=C/C(=O)NO)ccn12 [Compound 101, 3-(3-{[Ethyl-(2-ethyl-butyl)-amino]-methyl}-2-methyl-imidazo[1,2-a]pyridin-7-yl)-N-hydroxy-acrylamide] | – |
| 300 | 2500 | – | CCCN(Cc1c(C(C)(C)C)nc2cc(/C=C/C(=O)NO)ccn12)C(C)C [Compound 102, 3-{2-tert-Butyl-3-[(isopropyl-propyl-amino)-methyl]-imidazo[1,2-a]pyridin-7-yl}-N-hydroxy-acrylamide] | – |
| > 10000 | 41000 | – | CCN(CC)Cc1c(-c2ccccc2)nc2ccc(/C=C/C(=O)NO)cn12 [Compound 103, 3-(3-Diethylaminomethyl-2-phenyl-imidazo[1,2a]pyridin-6-yl)-N-hydroxy-acrylamide] | – |
| 780 | 6300 | – | CN(Cc1c(C(C)(C)C)nc2cc(C=CC(=O)NO)ccn12)CC(C)(C)C [Compound 104, 3-(2-tert-Butyl-3-{[(2,2-dimethyl-propyl)-methyl-amino]-methyl}-imidazo[1,2-a]pyridin-7-yl)-N-hydroxy-acrylamide] | – |
| 7400 | 44000 | – | CCN(Cc1c(-c2ccccc2)nc2cc(/C=C/C(=O)NO)ccn12)CC(F)(F)F [Compound 105, 3-(3-{[Ethyl-(2,2,2-trifluoro-ethyl)-amino]-methyl}-2-phenyl-imidazo [1,2-a]pyridin-7-yl)-N-hydroxy-acrylamide] | – |
| 220 | 1700 | – | CCCCN(C)Cc1c(C(C)(C)C)nc2cc(/C=C/C(=O)NO)ccn12 [Compound 106, 3-{2-tert-Butyl-3-[(butyl-methyl-amino)-methyl]-imidazo[1,2-a]pyridin-7-yl}-N-hydroxy-acrylamide] | – |
| 410 | 2300 | – | CCC(CC)CN(C)Cc1c(C(C)(C)C)nc2cc(/C=C/C(=O)NO)ccn12 [Compound 107, 3-(2-tert-Butyl-3-{[(2-ethyl-butyl)-methyl-amino]-methyl}-imidazo[1,2-a]pyridin-7-yl)-N-hydroxy-acrylamide] | – |
| 350 | 900 | – | CC(C)CCN(C)Cc1c(C(C)(C)C)nc2cc(/C=C/C(=O)NO)ccn12 [Compound 108, 3-(2-tert-Butyl-3-{[methyl-(3-methyl-butyl)-amino]-methyl}-imidazo[1,2-a]pyridin-7-yl)-N-hydroxy-acrylamide] | – |
| 270 | 730 | – | CN(CCC(C)(C)C)Cc1c(C(C)(C)C)nc2cc(/C=C/C(=O)NO)ccn12 [Compound 109, 3-(2-tert-Butyl-3-{[(3,3-dimethyl-butyl)-methyl-amino]-methyl}-imidazo[1,2-a]pyridin-7-yl)-N-hydroxy-acrylamide] | – |
| 90 | 570 | – | CCCCc1nc2cc(/C=C/C(=O)NO)ccn2c1CN(CC)CC(C)C [Compound 112, 3-{2-Butyl-3-[(ethyl-isobutyl-amino)-methyl]-imidazo[1,2-a]pyridin-7-yl}-N-hydroxy-acrylamide] | – |
| 20 | 90 | – | CCCCc1nc2cc(/C=C/C(=O)NO)ccn2c1CN(CC)CCC(C)C [Compound 114, 3-(2-Butyl-3-{[ethyl-(3-methyl-butyl)-amino]-methyl}-imidazo[1,2-a]pyridin-7-yl)-N-hydroxy-acrylamide] | – |
| 160 | 950 | – | CCCCc1nc2cc(/C=C/C(=O)NO)ccn2c1CN(CC)CC(C)(C)C [Compound 115, 3-(2-Butyl-3-{[(2,2-dimethyl-propyl)-ethyl-amino]-methyl}-imidazo[1,2-a]pyridin-7-yl)-N-hydroxy-acrylamide] | – |
| 80 | – | – | CCCCc1nc2cc(/C=C/C(=O)NO)ccn2c1CN(CC)CC(C)CCC (stereo not shown) [Compound 116, 3-(2-Butyl-3-{[ethyl-(2-methyl-pentyl)-amino]-methyl}-imidazo[1,2-a]pyridin-7-yl)-N-hydroxy-acrylamide] | 490 |
| 30 | 140 | – | CCCCc1nc2cc(/C=C/C(=O)NO)ccn2c1CN(CC)CCC(C)(C)C [Compound 117, 3-(2-Butyl-3-{[(3,3-dimethyl-butyl)-ethyl-amino]-methyl}-imidazo[1,2-a]pyridin-7-yl)-N-hydroxy-acrylamide] | – |
| 150 | 390 | – | CCCCc1nc2cc(/C=C/C(=O)NO)ccn2c1CN(CC)CC(CC)CC [Compound 118, 3-(2-Butyl-3-{[ethyl-(2-ethyl-butyl)-amino]-methyl}-imidazo[1,2-a]pyridin-7-yl)-N-hydroxy-acrylamide] | – |
| 200 | 530 | – | CCCCc1nc2cc(/C=C/C(=O)NO)ccn2c1CN(CC)CCC(C)CC(C)(C)C (stereo not shown) [Compound 119, 3-(2-Butyl-3-{[ethyl-(3,55-trimethyl-hexyl)-amino]-methyl}-imidazo[1,2-a]pyridin-7-yl)-N-hydroxy-acrylamide] | – |
| 40 | 680 | – | CCCCN(CC)Cc1c(-c2ccccc2)nc2cc(/C=C/C(=O)NO)ccn12 [Compound 120, 3-{3-[(Butyl-ethylamino)-methyl]-2-phenyl-imidazo[1,2-a]pyridin-7-yl}-N-hydroxy-acrylamide] | – |
| 30 | 490 | – | CCN(CCC(C)C)Cc1c(-c2ccccc2)nc2cc(/C=C/C(=O)NO)ccn12 [Compound 121, 3-(3-{[Ethyl-(3-methyl-butyl)-amino]-methyl}-2-phenyl-imidazo[1,2-a]pyridin-7-yl)-N-hydroxy-acrylamide] | – |

| Structure (SMILES) | IC50 [1] [nM] | GI50 [2, 3] [nM] | GI50 [2, 4] [nM] | GI50 ([2]; 96 h treatment) [nM] |
| --- | --- | --- | --- | --- |
| CCCN(Cc1c(C)nc2cc(C=CC(=O)NO)ccn12)CC(C)(C)C [Compound 110, 3-(3-{[(2,2-Dimethyl-propyl)-propyl-amino]-methyl}-2-methyl-imidazo[1,2a]pyridin-7-yl)-N-hydroxy-acrylamide] | 130 | – | – | 700 |
| CCN(Cc1c(C)nc2cc(C=CC(=O)NO)ccn12)CC(C)(C)C [Compound 111, 3-(3-{[(2,2-Dimethyl-propyl)-ethyl-amino]-methyl}-2-methyl-imidazo[1,2a]pyridin-7-yl)-N-hydroxy-acrylamide] | 50 | – | – | 600 |
